One may read the solubility as how much of the substance goes into solution per volume. Higher therefore signals much dissolved substance.

Data set [1] in a line: Solubility of Compound A in FaSSIF. In kind it is physicochemical. Particulars: 37 °C. How it is done: (§1) A 1% solution of PVPVA64 in FaSSIF was prepared by weighing 2.5 g of PVPVA64 in a volumetric flask and dissolving it in 250 mL FaSSIF at 37° C. The complete volume of the volumetric flask was transferred to a suitable Duran bottle. Afterwards, a highly concentrated solution of Compound A monohydrate (obtained according to Example 1) in NMP was prepared (175 mg/mL). At time zero, 679 μL of the highly concentrated Compound A solution (175 mg/mL) was added to the Duran bottle containing 250 mL FaSSIF+1% PVPVA64 (w/v). The added volume Compound A solution was chosen to obtain a theoretical final concentration of 475.5 μg/mL. This concentration results in a suitable degree of supersaturation of Compound A.

Data set [2] is described as follows: Crystallisation inhibition: XRPD of the precipitate from a supersaturated solution in FaSSIF + 1% PVPVA64. It is filed as physicochemical. Particulars: Compound A monohydrate in NMP (175 mg/mL) added to FaSSIF + 1% PVPVA64, 475.5 μg/mL (DS 16), 37° C., 2 hours, 300 rpm. How it is done:
as §1
A precipitate formed immediately after adding the highly concentrated solution. The mixture was equilibrated at 37° C. for 2 hours while stirring at 300 rpm. After 2 hours, the precipitate was separated from the liquid phase by vacuum filtration. The precipitate was then analyzed with Powder X-Ray Diffraction to check if the API present in the formed precipitate was present as an amorphous or a crystalline form.
X-ray powder diffraction (XRPD) analysis was carried out on a PANalytical (Philips) X'PertPRO MPD diffractometer. The instrument is equipped with a Cu LFF X-ray tube. The compound was spread on a zero-background sample holder

≈ marks a conversion by molar mass, not a printed value.

In the case of `O=C(Nc1ccnc(C(F)(F)F)c1)c1cnn(-c2cccc3c(=O)[nH]ccc23)c1C(F)(F)F` [Compound A, 1-(1-oxo-1,2-dihydroisoquinolin-5-yl)-5-(trifluoromethyl)-N-(2-(trifluoromethyl)pyridin-4-yl)-1H-pyrazole-4-carboxamide], in data set [1], the concentration in solution (solubility) came to 29.7 µg/mL (≈ 63.6 µM). In addition, the “Form of the precipitate (amorphous or crystalline) by XRPD” value in data set [2] is recorded as “amorphous precipitate”.
